From patent US7449558B2, “Site-specific labelling of proteins” (National University of Singapore, priority 2003, dated 2008) come the findings set out here.

The structures appear in SMILES notation.

One data set deals with T1, N-terminal cysteine GST (Schistosoma japonicum, UniProt P08515).
T1 construct: Ssp DnaB intein tag (pTWIN2) (N, cleaved yes); expressed in transfected cells; host or cells: E. coli ER2566 transformed with pTWIN2-GST
Nature of the data set: In vivo time-course labelling of N-terminal cysteine GST in live bacterial cells. The format is cell-based, E. coli. The following applies: cells expressing labelled GST, FIG. 15. On the procedure: To generate in vivo proteins having N-terminal cysteine residues, bacterial cells expressing N-terminal cysteine-containing proteins EGFP and GST fused to the C-terminus of the Ssp DnaB mini-intein were induced to undergo self-cleavage, releasing the N-terminal cysteine protein, then incubated with the probes over a period of 24 h.
Briefly, the above bacterial constructs were transformed into the E. coli expression strain ER2566 (NEB) and grown in 100 mg/L ampicillin containing LB media at 37° C. […]
For the time-course labelling experiments, a small sample of cells was removed at each time interval, quenched with 0.01M cysteine, and lysed by boiling with SDS loading buffer. The resulting sample was analyzed directly on a 12% SDS-PAGE. Fluorescence labelling was visualized with a Typhoon™ fluorescence scanner (Amersham Biosciences). Biotinylated proteins were detected by western blotting (with anti-biotin-HRP) with the Enhanced ChemiLuminescent™ kit (Amersham).
Results are shown in FIG. 13, where i=cells labelled with probe 2 (FL), ii=cells labelled with probe 3 (TMR) and iii=cells labelled with probe 5 (biotin) (lanes 1-8 are samples taken at 0 min, 10 min, 30 min, 1 h, 3 h, 6 h, 12 h and 24 h, respectively). The results of the 24 hour time-course are quantified in FIG. 14 (FL=♦, TMR=▪ and BIOTIN=▴).

Data set [1] has as its system N-terminal cysteine ECFP-NLS. Nature of the data set: Fluorescence microscopy / FRET of HEK293 cells expressing N-terminal cysteine ECFP-NLS. The format is cell-based. The conditions noted are these: HEK293 cells transfected with ECFP-NLS. An excerpt: Intein-fused EGFP and ECFP (enhanced cyan fluorescent protein) were constructed, in which an extra N-terminal cysteine was introduced into both EGFP and ECFP, as described above. To facilitate evaluation of the labelling, as well as to assess whether the strategy targets proteins expressed in subcellular compartments of mammalian cells (e.g. nucleus), a nuclear localization sequence (NLS) was fused to ECFP, generating ECFP-NLS. The intein-fused EGFP gene was amplified from the above bacterial construct, while the ECFP gene with a nuclear localization sequence (ECFP-NLS) was amplified from pECFP-Nuc (Clontech, USA) and cloned first into the pTWIN1 vector. Using the GATEWAY™ cloning system (Invitrogen, USA), the intein-fused genes were cloned into the donor vector pDONR201, followed by recombination of the cloned genes into a mammalian expression vector pT-Rex-DEST30 (Invitrogen). All constructs were sequence verified. […]
Fluorescence microscopy experiments were also performed using HEK293 mammalian cells. […] The fluorescence images were obtained using the excitation and emission channels described above for the bacterial experiments.

A further data set concerns the target N-terminal cysteine EGFP (Aequorea victoria, UniProt P42212, F64L/H231L/S65T). The following applies: labelled bacterial cells expressing EGFP, excitation 470±20 nm, emission 605±30 nm.
Data set [2] has as its system control proteins without N-terminal cysteine (GST, Protease, Lipase, Papain, Pepsin). Nature of the data set: In vitro labelling of control proteins without an N-terminal cysteine (site-specificity). The following applies: 5 control proteins with no or only internal cysteines, 60 min incubation. The format is biochemical. On the procedure: Probes were prepared as 200 μM stocks (25× in DMSO) and stored at −20° C. In a typical labelling reaction, 6 μl of each probe (final concentration: 8 μM) was added to 50 μl of pure protein (1 mg/ml) dissolved in 1×PBS (final concentration of protein: ˜[…]), with or without 1 mM DTT, and the reaction was topped up with 1×PBS to a final volume of 150 μl. DTT was added to experiments, where live cells were used, to reduce background labelling. At specific time intervals, 15 μl of the reaction was withdrawn and quenched by addition of 1.7 μl of 100 mM cysteine to the reaction mixture (final concentration of cysteine: 10 mM), followed by denaturation with SDS-PAGE loading dye at 95° C. for 3 min. The loading dye also serves to hydrolyze the diacetate groups on probes 2 and 4, thereby releasing the fluorescence.
Probe 3 was used in the labelling reaction, and the reaction was performed as mentioned above with 60 min incubation time. All proteins are available from Sigma (St Louis, USA). (Lane 1. GST (cat #: G-4385); Lane 2. Protease (P-5380); Lane 3. Lipase (L-9031); Lane 4. Papain (P-4762); Lane 5. Pepsin (P-6887); Lane 6. BioRad Precision Plus Protein Standards).

In the next data set the test system is HEK293 cells. Briefly: Cell toxicity in HEK293 cells during labelling. The following applies: 100 μM, 24 h. The format is cell-based. On the procedure:
Briefly, HEK293 cells grown in DMEM+10% FBS media at 37° C. with 5% CO2 were transiently transfected with pT-Rex-DEST30-intein-EGFP-NLS or pT-Rex-DEST30-intein-ECFP-NLS using Polyfect™ (Qiagen, USA). See FIGS. 12ii. and iii., respectively, for in vivo intein cleavage for the expressed EGFP and ECFP proteins expressed in HEK293 cells. After 36 hours of protein expression, cells were washed in 1×PBS and cystine-free DMEM (Sigma) was added. The biotin-thioester probe, probe 5, was added to a final concentration of 100 μM (10-100 μM also worked) and cells were incubated for another 24 h. […] Cells were harvested by centrifugation at 1000 rpm for 10 min and resuspended in 1×PBS. Washings were repeated at least 3 times, and cells were lysed in PBS using glass beads. Magnetic streptavidin beads (Promega, USA) were used to pull-down all biotinylated proteins in the cell lysate. Beads were washed twice in 1× PBS, then boiled in 1×SDS loading buffer and loaded onto a 12% SDS-PAGE. Western blotting was used to assess biotinylated proteins, as described above.

T1 sequence (P08515 whole entry, added parts left off): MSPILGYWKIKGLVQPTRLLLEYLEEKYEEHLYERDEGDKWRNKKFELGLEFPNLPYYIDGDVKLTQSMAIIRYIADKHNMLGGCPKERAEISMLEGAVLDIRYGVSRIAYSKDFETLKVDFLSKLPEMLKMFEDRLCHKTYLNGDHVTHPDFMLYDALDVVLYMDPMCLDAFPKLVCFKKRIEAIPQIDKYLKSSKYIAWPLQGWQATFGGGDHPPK
Procedure for N-terminal cysteine EGFP: The FRET channel for CFP/TMR pair was recorded using filters with an excitation: 436±20 nm and emission: 620±20 nm (Chroma). The FRET channel for GFP/TMR pair was using filters with excitation=470±20 nm and emission=605±30 nm (Zeiss).

As for `O=C(CNC(=O)c1ccc(C2=C3C=CC(O)C=C3Oc3cc(O)ccc32)c(C(=O)O)c1)SCc1ccccc1` (stereo not drawn) [Probe 2, N-benzylsulfanylcarbonylmethyl-6-(3,6-dihydroxy-3H-xanthen-9-yl)-isophthalamic acid], the “specificity of labelling inside the live cell (SDS-PAGE)” value at N-terminal cysteine GST is given as “only the desired protein was labelled specifically, as well as covalently, inside the live cell, with little or no background observed”.

In the case of `CN(C)c1ccc2c(c1)Oc1cc(N(C)C)ccc1C21OC(=O)c2cc(C(=O)NCC(=O)SCc3ccccc3)ccc21` [Probe 3, amino thioacetic acid S-benzyl ester of 5-carboxy-tetramethylrhodamine], the localization of labelling entry in data set [1] (100 μM probe, 24 h) was “the majority of the labelling occurred inside the nucleus”. The FRET signal result in data set [1] (excitation 436±10 nm, emission 620±30 nm) is “clear FRET signal in the nucleus of the labelled cells”; on N-terminal cysteine EGFP, “a clear FRET signal was observed”. In addition, the site-specificity of labelling entry in data set [2] is given as “labelling occurred ONLY with proteins possessing an N-terminal cysteine”.

Consider `O=C(CCCCC1SCC2NC(=O)NC21)NCC(=O)SCc1ccccc1` (stereo not drawn) [Probe 5, [5-(2-oxo-hexahydro-thieno[3,4-d]imidazol-6-yl)-pentanoylamino]-thioacetic acid S-benzyl ester], for which the cell toxicity entry in the data set on HEK293 cells was “No cell toxicity was observed”.
